The values below come from publication PMC12683216, “Using High‐Throughput Screening to Identify Crosslinking Peptides That Control Cell‐Mediated Matrix Degradation” (Advanced Healthcare Materials, 2025).

Where a SMILES comes first, the peptide text is derived from it. [ ]: non-standard residue; d: D form. βAla = NCCC(=O)O

What all share (assay type): in vitro ADME, human
Conditions in all cases: human, 24 h, LC-MS

The nature of data set [1]: Soluble peptide degradation, Media condition (cell-conditioned media, LC-MS). As for the experimental part: (§1) Most in vitro protease activity assays incubate the peptides or proteins of interest with a single protease in a buffered solution. However, the kinetics of protease activity in tissues are complex and highly regulated, and both the activity^[ [37] ^] and substrate specificity^[ [38] ^] of proteases can be modulated through association with other proteins.^[ [39] ^] Most MMP‐substrate peptides are also cleaved by multiple proteases,^[ [5] ^] and within the context of biomaterials, the most important factor is typically how the combined activity of all proteases, rather than the activity of any specific protease, modifies the local microenvironment versus the activity due to any individual enzyme. We synthesized peptides identified in the TAILS proteomic screen that were present on proteins that are known to be secreted or found on the cell membrane, pooled them, and added them either to cell culture media on top of cells, the “Cells” condition, or conditioned media lacking cells, the “Media” condition (Figure 2A). The fraction of peptides remaining after 24 h in each condition was then quantified using LC‐MS. Soluble proteases should be present in both conditions, however, membrane‐type proteases should primarily be found in the samples containing cells and not the conditioned media samples. A key benefit of this approach is that it surveys the total functional proteolytic activity, including the effects of inhibitors and co‐factors, and quantifies the degradation rate of soluble peptides by the complete secretome of different cell types.
(§2) hUVECs (75000 per well) or hMSCs (36000 per well) were seeded into a 48 well plate, and 500 µL media was added to the wells. […] The peptide libraries were dissolved at a stock solution of 10 mM total peptide content. For libraries containing 38 peptides, 95 µL of the stock solution was added to each well; for libraries with 19 peptides, 47.5 µL was added to each well, and media was taken at 0 and 24 h. Add 4 µL of acetic acid to all collected media in the LC‐MS plates and store them in a −80 °C freezer to prevent further proteolytic degradation. From each sample, 10 µL of crude solution was introduced by the LC‐MS through a Thermo Scientific Vanquish LC System (Thermo Fisher Scientific), which outputted to a Thermo Scientific LTQ XL Linear Ion Trap Mass Spectrometer (Thermo Fisher Scientific). The sampled mixture was trapped on a column (ProntoSIL C18 AQ, 120 Å, 3 µm, 2.0 x 50 mm HPLC Column, PN 0502F184PS030, MAC‐MOD Analytical Inc.). The samples were loaded onto the column with a solvent containing acetonitrile/water, 5:95 (v/v) containing 1% acetic acid at a flow rate of 300 µL min^−1 and held for 1 min. The sample was then eluted from the column with a linear gradient of 5–40% Solvent B (1% acetic acid in acetonitrile) at the same flow rate for 5 min. This was followed by a 1 min ramp up to 100% Solvent B, where it was re‐equilibrated with Solvent A (1% acetic acid) to 5% solvent B over the course of 1 min and held there for 2 min. The column temperature was kept at a constant 29 °C, and the mass spectrometer was operated in positive ion mode. Using a Heated ESI, the Source Voltage was set to 4.1 kV, and the capillary temperature was 350 °C. For non‐library degradation studies, 2.5 µL of 10 mM peptide stock solution for each peptide was added.
(§3) To assess the activity of the conditioned media, the media were divided into two equal portions. One portion was used for a standard degradation study, while the other was cultured for an additional 24 h before the PanMMP and KLVADLMASAE were added. After 24 h of incubation, the media were collected for further analysis. To assess the impact of recombinant MMP‐14 on PanMMP and KLVADLMASAE, recombinant MMP‐14 (antibodies.com) was dissolved in the media at a concentration of 0.5 nM. The remaining steps followed the standard degradation study protocol. […]

Data set [2] in a line: Soluble peptide degradation, Cells condition (LC-MS). As for the experimental part:
as §1, §2
In the MMP‐14 inhibitor study, the MMP‐14 inhibitor NSC 405 020 (Cayman Chemical Company) was dissolved in DMSO to make a 10 mM stock solution and stored in −20 °C freezer. 0.5 µL MMP‐14 inhibitor stock solution was added to each well to achieve a 10 µM final concentration.
For all degradation studies using soluble peptides, a non‐proteolytically degradable NH2‐βFβAβAβAβAβAβA‐amide (βFβA6) peptide, where βF is β‐phenylalanine and βA is β‐alanine, was added at a 50 µM concentration and used as an internal standard. Peptide degradation ratios were measured by LC‐MS and analyzed by Xcalibur. […]

The nature of data set [3]: Soluble peptide degradation, Media condition (cell-conditioned media, LC-MS). As for the experimental part: as §1, §2, §3
The source holds these as a separate data set.

The mark [4] stands for this setting: hUVEC-conditioned media without cells (Media condition), Figure 3B heatmap, split-and-pool libraries KLVADX1X2ASAE in hUVEC-conditioned media without cells, ratio to βFβA6, N = 2, read-out: Fraction of peptide remaining after 24 hours: hUVEC Media.
[5] abbreviates: hMSCs in culture with fresh media (Cells condition), Figure 3B heatmap, split-and-pool libraries KLVADX1X2ASAE (19 or 38 peptides per library) in media on hMSCs, ratio to βFβA6, N = 2, read-out: Fraction of peptide remaining after 24 hours: hMSC Cells.
Where [6] appears, read: hUVECs in culture with fresh media (Cells condition), Figure 3B heatmap, split-and-pool libraries KLVADX1X2ASAE in media on hUVECs, ratio to βFβA6, N = 2, read-out: Fraction of peptide remaining after 24 hours: hUVEC Cells.
[7] abbreviates: hMSC-conditioned media without cells (Media condition), Figure 3B heatmap, split-and-pool libraries KLVADX1X2ASAE in hMSC-conditioned media without cells, ratio to βFβA6, N = 2, read-out: Fraction of peptide remaining after 24 hours: hMSC Media.
[8] abbreviates: Figure 2B heatmap, pooled TAILS-derived soluble peptides in 24 h hUVEC-conditioned media without cells, ratio to βFβA6 internal standard, 24 h / 0 h, N = 5, read-out: Fraction of peptide remaining at 24 hours: hUVEC Media.
[9] abbreviates: hMSCs in culture with fresh media (Cells condition), Figure 2B heatmap, pooled TAILS-derived soluble peptides (Ac-βAla N-terminus, βAla-amide C-terminus) in media on hMSCs (36000 per well, 48 well plate, 500 µL), ratio to βFβA6 internal standard, 24 h / 0 h, N = 5, read-out: Fraction of peptide remaining at 24 hours: hMSC Cells.
The mark [10] stands for this setting: Figure 2B heatmap, pooled TAILS-derived soluble peptides in 24 h hMSC-conditioned media without cells, ratio to βFβA6 internal standard, 24 h / 0 h, N = 5, read-out: Fraction of peptide remaining at 24 hours: hMSC Media.
[11] abbreviates: hUVECs in culture with fresh media (Cells condition), Figure 2B heatmap, pooled TAILS-derived soluble peptides in media on hUVECs (75000 per well, 48 well plate, 500 µL), ratio to βFβA6 internal standard, 24 h / 0 h, N = 5, read-out: Fraction of peptide remaining at 24 hours: hUVEC Cells.

On to `CC(=O)NCCC(=O)N[C@@H](CCCCN)C(=O)N[C@@H](CC(C)C)C(=O)N[C@H](C(=O)N[C@@H](C)C(=O)N[C@@H](CC(=O)O)C(=O)N[C@@H](CC(N)=O)C(=O)N1CCC[C@H]1C(=O)N[C@@H](C)C(=O)N[C@@H](CO)C(=O)N[C@@H](C)C(=O)N[C@@H](CCC(=O)O)C(=O)NCCC(N)=O)C(C)C` [Asn-Pro] (Ac-[βAla]KLVADNPASAE[βAla]-NH2), for which the share remaining at 24 h in data set [1] (cells or culture medium, Figure 3B heatmap, split-and-pool libraries KLVADX1X2ASAE in hUVEC-conditioned media without cells, ratio to βFβA6, N = 2, read-out: Fraction of peptide remaining after 24 hours: hUVEC Media) came to 98%; in data set [2] (cells or culture medium, Figure 3B heatmap, split-and-pool libraries KLVADX1X2ASAE (19 or 38 peptides per library) in media on hMSCs, ratio to βFβA6, N = 2, read-out: Fraction of peptide remaining after 24 hours: hMSC Cells), 54%; in data set [2] (cells or culture medium, Figure 3B heatmap, split-and-pool libraries KLVADX1X2ASAE in media on hUVECs, ratio to βFβA6, N = 2, read-out: Fraction of peptide remaining after 24 hours: hUVEC Cells), 91%; in data set [3] (cells or culture medium, Figure 3B heatmap, split-and-pool libraries KLVADX1X2ASAE in hMSC-conditioned media without cells, ratio to βFβA6, N = 2, read-out: Fraction of peptide remaining after 24 hours: hMSC Media), 84%.
As for `CC(=O)NCCC(=O)N[C@@H](CCCCN)C(=O)N[C@@H](CC(C)C)C(=O)N[C@H](C(=O)N[C@@H](C)C(=O)N[C@@H](CC(=O)O)C(=O)N[C@@H](CC(=O)O)C(=O)N[C@@H](CCC(N)=O)C(=O)N[C@@H](C)C(=O)N[C@@H](CO)C(=O)N[C@@H](C)C(=O)N[C@@H](CCC(=O)O)C(=O)NCCC(N)=O)C(C)C` [Asp-Gln] (Ac-[βAla]KLVADDQASAE[βAla]-NH2), the fraction remaining at 24 h was determined as 102% in data set [1] (setting [4]), 39% in data set [2] (setting [5]), 84% in data set [2] (setting [6]) and 75% in data set [3] (setting [7]).
For `CC(=O)NCCC(=O)N[C@@H](CCCCN)C(=O)N[C@@H](CC(C)C)C(=O)N[C@H](C(=O)N[C@@H](C)C(=O)N[C@@H](CC(=O)O)C(=O)N[C@@H](Cc1ccc(O)cc1)C(=O)N1CCC[C@H]1C(=O)N[C@@H](C)C(=O)N[C@@H](CO)C(=O)N[C@@H](C)C(=O)N[C@@H](CCC(=O)O)C(=O)NCCC(N)=O)C(C)C` [Tyr-Pro] (Ac-[βAla]KLVADYPASAE[βAla]-NH2), the amount remaining at 24 h in data set [1] (setting [4]) is 96%; in data set [2] (setting [5]) it was 35%; in data set [2] (setting [6]), 89%; in data set [3] (setting [7]), 65%.
With `CC(=O)NCCC(=O)N[C@@H](CCC(=O)O)C(=O)N[C@@H](CCC(=O)O)C(=O)N[C@@H](CO)C(=O)N[C@@H](CO)C(=O)N[C@@H](Cc1c[nH]c2ccccc12)C(=O)NCC(=O)NCC(=O)N[C@@H](CO)C(=O)N1CCC[C@H]1C(=O)N[C@@H](CO)C(=O)N1CCC[C@H]1C(=O)N[C@H](C(=O)N[C@@H](CCCNC(=N)N)C(=O)NCCC(N)=O)C(C)C` [EESSWGGSPSPVR] (Ac-[βAla]EESSWGGSPSPVR[βAla]-NH2), the figures for the share remaining at 24 h in data set [1] (setting [8]), in data set [2] (setting [9]) and in data set [3] (setting [10]) were 102%, 89% and 99%, respectively.
As for `CC(=O)NCCC(=O)N[C@@H](CC(C)C)C(=O)N[C@@H](C)C(=O)N[C@@H](CC(C)C)C(=O)N[C@@H](CCC(=O)O)C(=O)N[C@@H](C)C(=O)N[C@@H](CCCNC(=N)N)C(=O)N[C@H](C(=O)N[C@H](C(=O)N[C@@H](CC(=O)O)C(=O)N[C@@H](CC(C)C)C(=O)NCCC(N)=O)[C@@H](C)O)[C@@H](C)O` [LALEARTTDL] (Ac-[βAla]LALEARTTDL[βAla]-NH2), the amount remaining at 24 h in data set [1] (setting [8]) was 104%; in data set [2] (setting [9]), 68%; in data set [2] (setting [11]) it was 94%; in data set [3] (setting [10]), 86%.
Take `CC(=O)NCCC(=O)N[C@@H](CCCCN)C(=O)N[C@@H](C)C(=O)N1CCC[C@H]1C(=O)NCC(=O)NCC(=O)N[C@@H](CCCCN)C(=O)N[C@@H](C)C(=O)N[C@@H](C)C(=O)NCC(=O)N1CCC[C@H]1C(=O)N[C@@H](C)C(=O)NCCC(N)=O` [KAPGGKAAGPA] (Ac-[βAla]KAPGGKAAGPA[βAla]-NH2): the amount remaining at 24 h in data set [1] (setting [8]) amounted to 88%; in data set [2] (setting [9]), 78%; in data set [2] (setting [11]), 71%; in data set [3] (setting [10]), 95%.
Consider `CC(=O)NCCC(=O)N[C@@H](CCCCN)C(=O)N[C@@H](CC(C)C)C(=O)N[C@H](C(=O)N[C@@H](C)C(=O)N[C@@H](CC(=O)O)C(=O)N[C@@H](CC(C)C)C(=O)N[C@@H](Cc1c[nH]c2ccccc12)C(=O)N[C@@H](C)C(=O)N[C@@H](CO)C(=O)N[C@@H](C)C(=O)N[C@@H](CCC(=O)O)C(=O)NCCC(N)=O)C(C)C` [Leu-Trp] (Ac-[βAla]KLVADLWASAE[βAla]-NH2), for which the fraction remaining at 24 h is 98% in data set [1] (setting [4]), 37% in data set [2] (setting [5]), 91% in data set [2] (setting [6]) and 62% in data set [3] (setting [7]).
Regarding `CC(=O)NCCC(=O)N[C@@H](CCCCN)C(=O)N[C@@H](CC(C)C)C(=O)N[C@H](C(=O)N[C@@H](C)C(=O)N[C@@H](CC(=O)O)C(=O)N[C@@H](CC(C)C)C(=O)N[C@@H](CC(C)C)C(=O)N[C@@H](C)C(=O)N[C@@H](CO)C(=O)N[C@@H](C)C(=O)N[C@@H](CCC(=O)O)C(=O)NCCC(N)=O)C(C)C` [Leu-Leu] (Ac-[βAla]KLVADLLASAE[βAla]-NH2), the share remaining at 24 h is 97% in data set [1] (setting [4]), 41% in data set [2] (setting [5]), 91% in data set [2] (setting [6]) and 73% in data set [3] (setting [7]).
